Biological target: T1, Recombinant human CBP containing the bromodomain (CBP-BD (1043-1159)) (Homo sapiens, UniProt Q92793)
T1 construct: Recombinant human CBP bromodomain (CBP-BD (1043-1159)); made in house; host or cells: E. coli BL21-CodonPlus (DE3), modified pET vector
Assay: CBP Alphascreen binding assay
Details: read-out: CREBBP (CBP) IC50
Summary of the method: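 Buffer: 50 mM HEPES pH 7.5, 50 mM NaCl, 0.01% BSA, 0.01% Triton X-100, 2 mM DTT. The signal was normalised to plate controls and fitted with a four-parameter curve to give IC50.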

T1 sequence (Q92793 1081-1197): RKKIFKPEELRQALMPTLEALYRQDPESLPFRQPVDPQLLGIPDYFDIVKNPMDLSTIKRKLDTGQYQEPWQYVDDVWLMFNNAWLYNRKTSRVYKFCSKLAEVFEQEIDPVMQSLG

Structure (SMILES) | IC50
Cc1noc(C)c1-c1cnc2c(c1)c(-c1ccc(C(=O)O)cc1)cn2C(C)c1ncccn1 (stereo not shown) [P-0013, 4-(5-(3,5-dimethylisoxazol-4-yl)-1-(1-(pyrimidin-2-yl)ethyl)-1H-pyrrolo[2,3-b]pyridin-3-yl)benzoic acid] | 0.1 to 1000 nM
Cc1noc(C)c1-c1cnc2c(c1)c(-c1ccc(C(=O)O)cc1)cn2C(C)c1ccc(F)cn1 (stereo not shown) [P-0014, 4-(5-(3,5-dimethylisoxazol-4-yl)-1-(1-(5-fluoropyridin-2-yl)ethyl)-1H-pyrrolo[2,3-b]pyridin-3-yl)benzoic acid] | 0.1 to 1000 nM
Cc1noc(C)c1-c1cnc2c(c1)c(-c1cccc(C(=O)O)c1)cn2C(c1ccccn1)C1CCCC1 (stereo not shown) [P-0015, 3-(1-(cyclopentyl(pyridin-2-yl)methyl)-5-(3,5-dimethylisoxazol-4-yl)-1H-pyrrolo[2,3-b]pyridin-3-yl)benzoic acid] | 0.1 to 1000 nM
Cc1noc(C)c1-c1cnc2c(c1)c(-c1ccc(F)c(C(=O)O)c1)cn2C(c1ccccn1)C1CCCC1 (stereo not shown) [P-0016, 5-(1-(cyclopentyl(pyridin-2-yl)methyl)-5-(3,5-dimethylisoxazol-4-yl)-1H-pyrrolo[2,3-b]pyridin-3-yl)-2-fluorobenzoic acid] | 0.1 to 1000 nM
Cc1noc(C)c1-c1cnc2c(c1)c(-c1ccnc(C(=O)O)c1)cn2C(c1ccccn1)C1CCCC1 (stereo not shown) [P-0017, 4-(1-(cyclopentyl(pyridin-2-yl)methyl)-5-(3,5-dimethylisoxazol-4-yl)-1H-pyrrolo[2,3-b]pyridin-3-yl)picolinic acid] | 0.1 to 1000 nM
Cc1noc(C)c1-c1cnc2c(c1)c(-c1cccc(CC(=O)O)c1)cn2C(c1ccccn1)C1CCCC1 (stereo not shown) [P-0018, 2-(3-(1-(cyclopentyl(pyridin-2-yl)methyl)-5-(3,5-dimethylisoxazol-4-yl)-1H-pyrrolo[2,3-b]pyridin-3-yl)phenyl)acetic acid] | 0.1 to 1000 nM
Cc1noc(C)c1-c1cnc2c(c1)c(-c1ccncc1)cn2C(c1ccccn1)C1CCCC1 (stereo not shown) [P-0019, 4-(1-(cyclopentyl(pyridin-2-yl)methyl)-3-(pyridin-4-yl)-1H-pyrrolo[2,3-b]pyridin-5-yl)-3,5-dimethylisoxazole] | 1000 to 8000 nM
Cc1noc(C)c1-c1cnc2c(c1)c(-c1ccc(C(=O)O)cc1OC1CC1)cn2[C@@H](C)c1ccccn1 [P-0170, (S)-3-cyclopropoxy-4-(5-(3,5-dimethylisoxazol-4-yl)-1-(1-(pyridin-2-yl)ethyl)-1H-pyrrolo[2,3-b]pyridin-3-yl)benzoic acid] | 0.1 to 1000 nM
Cc1noc(C)c1-c1cnc2c(-c3ccc(C(=O)O)cc3C#CC3CC3)cn([C@@H](C)c3ccccn3)c2c1 [P-0171, (S)-3-(cyclopropylethynyl)-4-(6-(3,5-dimethylisoxazol-4-yl)-1-(1-(pyridin-2-yl)ethyl)-1H-pyrrolo[3,2-b]pyridin-3-yl)benzoic acid] | 0.1 to 1000 nM
COc1ccc(C(=O)O)cc1-c1cn(C(C)(c2ccccn2)c2ccccn2)c2cc(-c3c(C)noc3C)cnc12 [P-0172, 3-(1-(1,1-di(pyridin-2-yl)ethyl)-6-(3,5-dimethylisoxazol-4-yl)-1H-pyrrolo[3,2-b]pyridin-3-yl)-4-methoxybenzoic acid] | 1000 to 8000 nM
CCOc1cc(C(=O)O)cc(OCC)c1-n1cc(-c2cccnc2)c2ncc(-c3c(C)noc3C)cc21 [P-0173, 4-(6-(3,5-dimethylisoxazol-4-yl)-3-(pyridin-3-yl)-1H-pyrrolo[3,2-b]pyridin-1-yl)-3,5-diethoxybenzoic acid] | 0.1 to 1000 nM
CCOc1cc(C(=O)O)cc(OC(C)C)c1-c1cn([C@@H](C)c2ccccn2)c2ncc(-c3c(C)noc3C)cc12 [P-0174, (S)-4-(5-(3,5-dimethylisoxazol-4-yl)-1-(1-(pyridin-2-yl)ethyl)-1H-pyrrolo[2,3-b]pyridin-3-yl)-3-ethoxy-5-isopropoxybenzoic acid] | 0.1 to 1000 nM
Cc1noc(C)c1-c1cnc2c(c1)c(-c1ccc(C(=O)O)cc1OC(F)(F)F)cn2-c1cccnc1 [P-0175, 4-(5-(3,5-dimethylisoxazol-4-yl)-1-(pyridin-3-yl)-1H-pyrrolo[2,3-b]pyridin-3-yl)-3-(trifluoromethoxy)benzoic acid] | 0.1 to 1000 nM
COc1ccncc1-n1cc(-c2ccc(C(=O)O)cc2OC(F)(F)F)c2cc(-c3c(C)noc3C)cnc21 [P-0176, 4-(5-(3,5-dimethylisoxazol-4-yl)-1-(4-methoxypyridin-3-yl)-1H-pyrrolo[2,3-b]pyridin-3-yl)-3-(trifluoromethoxy)benzoic acid] | 0.1 to 1000 nM
Cc1noc(C)c1-c1cnc2c(c1)c(-c1ccc(C(=O)O)cc1OC(F)(F)F)cn2-c1cnccc1Cl [P-0177, 4-(1-(4-chloropyridin-3-yl)-5-(3,5-dimethylisoxazol-4-yl)-1H-pyrrolo[2,3-b]pyridin-3-yl)-3-(trifluoromethoxy)benzoic acid] | 0.1 to 1000 nM
Cc1noc(C)c1-c1cnc2c(c1)c(-c1ccc(C(=O)O)cc1C#CC1CC1)cn2[C@@H](C)c1ccccn1 [P-0178, (S)-3-(cyclopropylethynyl)-4-(5-(3,5-dimethylisoxazol-4-yl)-1-(1-(pyridin-2-yl)ethyl)-1H-pyrrolo[2,3-b]pyridin-3-yl)benzoic acid] | 1000 to 8000 nM

Structure (SMILES) | IC50
Cc1noc(C)c1-c1cnc2c(c1)c(-c1ccc(C(=O)O)cc1OC1CCC1)cn2[C@@H](C)c1ccccn1 [P-0179, (S)-3-cyclobutoxy-4-(5-(3,5-dimethylisoxazol-4-yl)-1-(1-(pyridin-2-yl)ethyl)-1H-pyrrolo[2,3-b]pyridin-3-yl)benzoic acid] | 0.1 to 1000 nM
Cc1noc(C)c1-c1cnc2c(c1)c(-c1ccc(C(=O)O)cc1OC(F)(F)F)cn2-c1ncccc1C(F)(F)F [P-0180, 4-(5-(3,5-dimethylisoxazol-4-yl)-1-(3-(trifluoromethyl)pyridin-2-yl)-1H-pyrrolo[2,3-b]pyridin-3-yl)-3-(trifluoromethoxy)benzoic acid] | 0.1 to 1000 nM
Cc1noc(C)c1-c1cnc2c(c1)c(-c1ccc(C(=O)O)cc1C1CC1)cn2[C@@H](C)c1ccccn1 [P-0181, (S)-3-cyclopropyl-4-(5-(3,5-dimethylisoxazol-4-yl)-1-(1-(pyridin-2-yl)ethyl)-1H-pyrrolo[2,3-b]pyridin-3-yl)benzoic acid] | 0.1 to 1000 nM
Cc1noc(C)c1-c1cnc2c(c1)c(-c1ccc(C(=O)O)cc1OC(F)(F)F)cn2-c1ncccc1F [P-0182, 4-(5-(3,5-dimethylisoxazol-4-yl)-1-(3-fluoropyridin-2-yl)-1H-pyrrolo[2,3-b]pyridin-3-yl)-3-(trifluoromethoxy)benzoic acid] | 0.1 to 1000 nM
Cc1noc(C)c1-c1cnc2c(c1)c(-c1ccc(C(=O)O)cc1OC(F)(F)F)cn2-c1ncccc1Cl [P-0183, 4-(1-(3-chloropyridin-2-yl)-5-(3,5-dimethylisoxazol-4-yl)-1H-pyrrolo[2,3-b]pyridin-3-yl)-3-(trifluoromethoxy)benzoic acid] | 0.1 to 1000 nM
CCOc1cc(C(=O)O)cc(OCC)c1-n1cc(-c2ccc(F)cc2)c2ncc(-c3c(C)noc3C)cc21 [P-0184, 4-(6-(3,5-dimethylisoxazol-4-yl)-3-(4-fluorophenyl)-1H-pyrrolo[3,2-b]pyridin-1-yl)-3,5-diethoxybenzoic acid] | 0.1 to 1000 nM
CCOc1cc(C(=O)O)cc(OCC)c1-n1cc(-c2cccc(Cl)c2)c2ncc(-c3c(C)noc3C)cc21 [P-0185, 4-(3-(3-chlorophenyl)-6-(3,5-dimethylisoxazol-4-yl)-1H-pyrrolo[3,2-b]pyridin-1-yl)-3,5-diethoxybenzoic acid] | 0.1 to 1000 nM
CCOc1cc(C(=O)O)cc(OCC)c1-n1cc(-c2ccc(F)cc2F)c2ncc(-c3c(C)noc3C)cc21 [P-0186, 4-(3-(2,4-difluorophenyl)-6-(3,5-dimethylisoxazol-4-yl)-1H-pyrrolo[3,2-b]pyridin-1-yl)-3,5-diethoxybenzoic acid] | 0.1 to 1000 nM
CCOc1cc(C(=O)O)cc(OCC)c1-n1cc(Cc2ccccn2)c2ncc(-c3c(C)noc3C)cc21 [P-0187, 4-(6-(3,5-dimethylisoxazol-4-yl)-3-(pyridin-2-ylmethyl)-1H-pyrrolo[3,2-b]pyridin-1-yl)-3,5-diethoxybenzoic acid] | 0.1 to 1000 nM
Cc1noc(C)c1-c1cnc2c(c1)c(-c1ccc(C(=O)O)cc1OC(F)(F)F)cn2-c1ccccc1 [P-0188, 4-(5-(3,5-dimethylisoxazol-4-yl)-1-phenyl-1H-pyrrolo[2,3-b]pyridin-3-yl)-3-(trifluoromethoxy)benzoic acid] | 0.1 to 1000 nM
Cc1ccncc1-n1cc(-c2ccc(C(=O)O)cc2OC(F)(F)F)c2cc(-c3c(C)noc3C)cnc21 [P-0189, 4-(5-(3,5-dimethylisoxazol-4-yl)-1-(4-methylpyridin-3-yl)-1H-pyrrolo[2,3-b]pyridin-3-yl)-3-(trifluoromethoxy)benzoic acid] | 0.1 to 1000 nM
CCOc1cc(C(=O)O)cc(OCC)c1-n1cc(CC2CCC2)c2ncc(-c3c(C)nnn3C)cc21 [P-0190, 4-(3-(cyclobutylmethyl)-6-(1,4-dimethyl-1H-1,2,3-triazol-5-yl)-1H-pyrrolo[3,2-b]pyridin-1-yl)-3,5-diethoxybenzoic acid] | 0.1 to 1000 nM
Cc1noc(C)c1-c1cnc2c(c1)c(-c1ccc(C(=O)O)cc1OC(F)(F)F)cn2CCN1CCOCC1 [P-0191, 4-(5-(3,5-dimethylisoxazol-4-yl)-1-(2-morpholinoethyl)-1H-pyrrolo[2,3-b]pyridin-3-yl)-3-(trifluoromethoxy)benzoic acid] | 0.1 to 1000 nM
CCOc1cc(C(=O)O)cc(OCC)c1-n1cc(-c2ccc(C3CC3)nc2)c2ncc(-c3c(C)noc3C)cc21 [P-0192, 4-(3-(6-cyclopropylpyridin-3-yl)-6-(3,5-dimethylisoxazol-4-yl)-1H-pyrrolo[3,2-b]pyridin-1-yl)-3,5-diethoxybenzoic acid] | 0.1 to 1000 nM
CCOc1cc(C(=O)O)cc(OCC)c1-n1cc(-c2cncc(Cl)c2)c2ncc(-c3c(C)noc3C)cc21 [P-0193, 4-(3-(5-chloropyridin-3-yl)-6-(3,5-dimethylisoxazol-4-yl)-1H-pyrrolo[3,2-b]pyridin-1-yl)-3,5-diethoxybenzoic acid] | 0.1 to 1000 nM

Source: US11446287B2, “Compounds and methods for EP300 or CBP modulation and indications therefor” (Opna Immuno-Oncology SA, priority 2019, dated 2022)
